From US11504383B2, “Crystalline forms of a Ryanodine receptor modulator and uses thereof” (ARMGO Pharma, Inc., priority 2021, dated 2022)

Tests used:
Type in all cases: physicochemical
[1] = Storage stability of the polymorphs followed by XRD; conditions: after 24 months (XRD at 3, 6, 12 and 24 months)
Protocol: The top panel depicts the polymorph at initiation and the bottom three panels depict the polymorph after 24 months. FIG. 5 Panel A: initial control; FIG. 5 Panel B: sample stored for 2 years in open bottle in stability chambers at 25° C./60% relative humidity (RH); FIG. 5 Panel C: sample stored for 2 years in closed bottle in stability chambers at 40° C./75% RH; FIG. 5 Panel D: sample stored for 2 years in open bottle in stability chambers at 40° C./75% RH.
The top panel depicts the polymorph at initiation and the bottom panels depict the polymorph after 3, 6, 12 and 24 months.

[2] = Competitive slurry experiments mixing Form 1 and Form 2 in various solvents; conditions: competitive slurry experiments at 15° C. and 40° C.
Protocol: Competitive slurry experiments were performed at 15° C. (Table 5) or 40° C. (Table 6) by mixing Form 1 and Form 2 in various solvents in acetonitrile/water, acetone/water and methanol/water mixtures. […] (Table 5) or 40° C. (Table 6).

[3] = Thermogravimetric analysis (loss of mass before melting/degradation); conditions: 25° C. to 250° C. at about 10° C./minute
Protocol: Thermogravimetric analysis (TGA) was performed. A 10 to 20 mg of sample of a crystalline form of 4-[(7-methoxy-2,3-dihydro-1,4-benzothiazepin-4(5H)yl)methyl]benzoic acid hemifumarate was placed into an aluminum pan, with nitrogen purge. The sample was equilibrated at 25° C. in a temperature-controlled chamber. The sample was heated at a scan rate of about 10° C./minute to 250° C. under nitrogen purge. A TGA Q5000 thermogravimetric analysis instrument was used.

COc1ccc2c(c1)CN(Cc1ccc(C(=O)O)cc1)CCS2.O=C(O)/C=C/C(=O)O [Form 2, 4-[(7-methoxy-2,3-dihydro-1,4-benzothiazepin-4(5H)yl)methyl]benzoic acid, hemifumarate]
Stability of the polymorph on storage (XRD, FIG. 10) [1]: stable
Relative stability of the forms [2]: more stable than Form 1
Loss of mass before melting degradation (TGA) [3]: < 0.1%
